Assay results reported in patent US8729052B2, “Composition for the prevention and treatment of alopecia, or for hair growth” (Phytos Co., Ltd., priority 2008, dated 2014).
“Also recorded” adds a separate entry of the source.

Legend:
[1] = tested on: CAM (chorioallantoic membrane); assay: Test for angiogenic activity, CAM (chorioallantoic membrane) assay; format: in vivo, chicken; conditions: for Angiogenic activity compared to the control: CAM assay, Table 3 and FIG. 5
Description: NAPS-1-P 0.5%-containing liposomes and the PhS-1-P 0.5%-containing liposomes, respectively prepared in Examples 1 and 4, were assayed for angiogenesis, with the use of phosphate buffered saline as a negative control, sphingosine-1-phosphate (PS-1-P) as a positive control, and the angiogenesis inhibitor trimethyl phytosphingosine (TMP) as a suppressive control.
For angiogenesis assay, CAM (chorioallantoic membrane) was used as a model. CAM from developing chicken eggs is routinely used in biological and biomedical research to investigate angiogenesis.
Fertile hen's eggs which were within one day after being laid, were purchased. Three days later, 6 mL of the white was removed from the fertile hen's eggs using a syringe, as illustrated in i of FIG. 4. Afterward, the eggs were opened at the top, as illustrated in ii of FIG. 4. From three days after egg-laying, the embryo started to develop. The membrane surrounding the embryo is CAM. Then, a cover slip on which a test drug was dropwise loaded and dried was placed on CAM, as illustrated in iii of FIG. 4. After the lapse of three days, the eggs were examined for drug-induced angiogenesis under a microscope, as illustrated in iv of FIG. 4.

[2] = tested on: Balb/c mice, depilated area; assay: Test for hair growth in Balb/c mice (2), once a day for four weeks; format: in vivo; conditions: applied once a day for four weeks
Excerpt: Balb/c mice, 5-6 weeks old, were purchased and shaved on the side to remove hair partially, followed by applying a depilatory cream to the shaved area to remove hair therefrom completely. The mice which were not completely depilated were excluded from the test. The suitable mice were randomly housed in cages at a population of three per cage. A total of five cages were employed.
The mice were left for one day after hair removal, and then the depilated area was coated once a day with the NAPS-1-P-containing liposomes prepared in Example 1. A total of 14 rounds of application were conducted. Hair growth was compared between treated groups and non-treated groups.
The NAPS-1-P 0.5%-containing liposomes (Example 1), the NAPS-1-P 1.0%-containing liposomes (Example 2), and the PhS-1-P 0.5%-containing liposomes (Example 4) were tested for hair growth activity in the same manner as in Experimental Example 1, with the exception that they were applied once a day for four weeks. In this context, Rogaine 5% (minoxidil 5% solution) was used as a positive control.

[3] = microscopic observation three days after placing test drug on CAM

Molecule | Angiogenesis results: count graded + (weakly promotive of angiogenesis) [1, 3] | Angiogenesis results: count graded ++ (highly promotive of angiogenesis) [1, 3] | Angiogenesis results: count graded +/− (insignificantly promotive of angiogenesis) [1, 3] | Angiogenesis results: count graded − (weakly inhibitive of angiogenesis) [1, 3] | Angiogenesis results: count graded −− (highly inhibitive of angiogenesis) [1, 3] | Angiogenic activity compared to the control [1] | Hair growth promoting activity, comparison between substances, concentrations or with minoxidil 5% solution (FIGS. 2 and 3) [2]
CCCCCCCCCCCCC/C=C/[C@@H](O)[C@@H](N)COP(=O)(O)O [PS-1-P, sphingosine-1-phosphate, reference compound] | 5 | 4 | 1 | – | – | – | –
trimethyl phytosphingosine [TMP, reference compound] | – | – | – | 2 | 8 | – | –
CCCCCCCCCCCCCC[C@@H](O)[C@@H](O)[C@@H](N)COP(=O)(O)O [PhS-1-P, phytosphingosine-1-phosphate] | 5 | 4 | 1 | – | – | significant angiogenic activity | –
CCCCCCCCCCCCCC[C@@H](O)[C@@H](O)[C@H](COP(=O)(O)O)NC(C)=O [NAPS-1-P, N-acetylphytosphingosine-1-phosphate] | 3 | 7 | – | – | – | significant angiogenic activity; also recorded: peak activity | superior of NAPS-1-P to PhS-1-P
